Assays:
[1] = molecular target: T1, Thermotoga maritima TmGH1 β-glucosidase (Thermotoga maritima, UniProt Q08638); experiment: Kinetic studies of reversible inhibition of TmGH1; type: biochemical; conditions: for inhibition of TmGH1 (in words): p-nitrophenyl β-D-glucopyranoside, Lineweaver–Burk method
T1 sequence (Q08638 1-446): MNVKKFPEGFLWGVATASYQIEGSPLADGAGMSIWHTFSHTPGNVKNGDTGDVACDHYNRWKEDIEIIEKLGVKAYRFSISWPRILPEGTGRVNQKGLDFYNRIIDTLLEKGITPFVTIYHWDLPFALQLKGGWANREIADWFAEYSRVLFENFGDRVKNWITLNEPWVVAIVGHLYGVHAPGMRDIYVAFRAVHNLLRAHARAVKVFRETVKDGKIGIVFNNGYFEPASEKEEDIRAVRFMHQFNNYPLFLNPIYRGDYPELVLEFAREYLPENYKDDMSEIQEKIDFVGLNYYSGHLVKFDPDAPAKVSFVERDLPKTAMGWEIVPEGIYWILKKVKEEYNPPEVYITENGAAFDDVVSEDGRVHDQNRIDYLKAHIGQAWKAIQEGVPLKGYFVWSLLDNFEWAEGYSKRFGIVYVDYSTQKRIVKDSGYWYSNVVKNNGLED

[2] = molecular target: recombinant human GAA (Myozyme), lysosomal α-glucosidase (Homo sapiens, UniProt P10253); experiment: Enzyme activity assay, apparent IC50 on GAA; type: biochemical

Row | Ki [1] [µM] | inhibition of TmGH1 (in words) [1] | IC50 [2] [µM] | inhibition of GAA (in words) ([2]; final concentrations up to 150 μM) | Compound
1 | 2.5 | low micromolar | – | – | OC[C@H]1NC[C@H](O)[C@@H](O)[C@@H]1O [DNJ, deoxynojirimycin, reference compound]
2 | 0.0082 | – | > 150 | No apparent inhibition | [N-]=[N+]=NCCCCNC(=O)[C@@H]1[C@H]2[C@H](O)[C@@H](O)[C@H](O)[C@@H](CO)[C@@H]12 [Compound 5]
3 | – | low micromolar | – | – | OC[C@@H]1[C@@H](O)[C@H](O)[C@@H](O)CN1CCCCCOCC12CC3CC(CC(C3)C1)C2 [AMP-DNM (MZ-21), reference compound]
4 | 22.3 | micromolar inhibition | > 150 | – | CCOC(=O)[C@@H]1[C@H]2[C@H](O)[C@@H](O)[C@H](O)[C@@H](CO)[C@@H]12 [Compound 3]
